Measurements from patent publication US20140228366A1, “HETEROARYL-SUBSTITUTED PYRAZOLOPYRIDINES AND USE THEREOF AS SOLUBLE GUANYLATE CYCLASE STIMULATORS” (BAYER INTELLECTUAL PROPERTY GMBH, priority 2011, published 2014).

How the values were obtained:
rabbit aorta rings = assay: Vasorelaxant effect in vitro (phenylephrine-contracted aorta rings); conditions: Oryctolagus cuniculus, phenylephrine contraction, concentration reducing control contraction by 50%
Protocol: Rabbits are stunned by a blow to the neck and exsanguinated. The aorta is removed, freed from adhering tissue and divided into rings of a width of 1.5 mm. The rings are placed individually under an initial tension in 5 ml organ baths with Krebs-Henseleit solution which is at 37° C., is gassed with carbogen and has the following composition (in each case mM): sodium chloride: 119; potassium chloride: 4.8; calcium chloride dihydrate: 1; magnesium sulphate heptahydrate: 1.4; potassium dihydrogenphosphate: 1.2; sodium bicarbonate: 25; glucose: 10. The contractile force is determined with Statham UC2 cells, amplified and digitalized using A/D transducers (DAS-1802 HC, Keithley Instruments Munich), and recorded in parallel on linear recorders. To produce a contraction, phenylephrine is added to the bath cumulatively in increasing concentration. After several control cycles, the substance to be investigated is added in each further run in increasing dosage in each case, and the height of the contraction achieved is compared with the height of the contraction reached in the last preceding run. This is used to calculate the concentration needed to reduce the magnitude of the control value by 50% (IC50 value). The standard administration volume is 5 μl; the DMSO content in the bath solution corresponds to 0.1%.

[1] = target: T1, recombinant guanylate cyclase reporter cell line (Rattus norvegicus, UniProt P19686+P20595); assay: Effect on a recombinant guanylate cyclase reporter cell line; format: cell-based
T1 construct: expressed in transfected cells; host or cells: recombinant reporter cell line
T1 sequence (P19686 1-690): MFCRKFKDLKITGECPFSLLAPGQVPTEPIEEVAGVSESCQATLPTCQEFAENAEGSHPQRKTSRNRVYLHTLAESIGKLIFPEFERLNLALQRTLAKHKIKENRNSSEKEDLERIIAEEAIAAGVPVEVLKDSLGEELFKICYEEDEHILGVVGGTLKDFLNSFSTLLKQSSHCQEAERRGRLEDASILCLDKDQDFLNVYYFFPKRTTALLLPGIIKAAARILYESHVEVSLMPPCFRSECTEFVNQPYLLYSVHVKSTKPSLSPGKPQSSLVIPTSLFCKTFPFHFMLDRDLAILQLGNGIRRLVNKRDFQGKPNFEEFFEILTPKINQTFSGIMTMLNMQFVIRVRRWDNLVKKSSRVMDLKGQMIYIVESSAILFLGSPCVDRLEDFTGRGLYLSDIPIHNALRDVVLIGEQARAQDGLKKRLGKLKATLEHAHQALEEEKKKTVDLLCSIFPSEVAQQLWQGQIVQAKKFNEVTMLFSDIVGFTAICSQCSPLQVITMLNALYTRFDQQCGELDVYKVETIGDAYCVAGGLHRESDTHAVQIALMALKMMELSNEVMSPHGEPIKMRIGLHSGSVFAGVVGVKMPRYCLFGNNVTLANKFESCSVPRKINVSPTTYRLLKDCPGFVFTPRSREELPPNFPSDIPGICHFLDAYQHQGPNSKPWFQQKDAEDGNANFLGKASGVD
T1 sequence (P20595 1-619): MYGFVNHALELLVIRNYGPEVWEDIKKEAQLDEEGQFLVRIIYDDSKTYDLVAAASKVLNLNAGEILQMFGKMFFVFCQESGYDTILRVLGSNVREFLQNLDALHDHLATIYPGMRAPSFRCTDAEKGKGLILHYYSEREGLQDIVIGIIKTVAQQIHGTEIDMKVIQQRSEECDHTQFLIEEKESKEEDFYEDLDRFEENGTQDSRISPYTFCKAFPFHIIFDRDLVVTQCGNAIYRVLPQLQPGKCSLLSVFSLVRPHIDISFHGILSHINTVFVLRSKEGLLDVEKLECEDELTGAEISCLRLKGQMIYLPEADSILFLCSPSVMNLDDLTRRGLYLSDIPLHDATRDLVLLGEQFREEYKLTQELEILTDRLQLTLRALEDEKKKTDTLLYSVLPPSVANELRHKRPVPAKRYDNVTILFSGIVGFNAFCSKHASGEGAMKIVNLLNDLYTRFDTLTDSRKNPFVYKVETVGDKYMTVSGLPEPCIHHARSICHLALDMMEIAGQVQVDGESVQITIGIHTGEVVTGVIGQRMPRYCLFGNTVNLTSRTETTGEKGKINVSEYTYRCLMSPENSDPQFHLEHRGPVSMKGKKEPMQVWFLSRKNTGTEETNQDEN
Protocol: The cellular activity of the compounds according to the invention is determined using a recombinant guanylate cyclase reporter cell line, as described in F. Wunder et al., Anal. Biochem. 339, 104-112 (2005).

IC50 (rabbit aorta rings)	MEC (minimum effective concentration) [1]	Compound
121 nM	1.0 µM	CC1(C)C(=O)Nc2nc(-c3nn(Cc4ccncc4F)c4ncc(F)cc34)nc(N)c21 [Example 12, 4-Amino-2-[5-fluoro-1-[(3-fluoropyridin-4-yl)methyl]-1H-pyrazolo[3,4-b]pyridin-3-yl]-5,5-dimethyl-5,7-dihydro-6H-pyrrolo[2,3-d]pyrimidin-6-one]
–	0.3 µM	CC1(C)C(=O)Nc2nc(-c3nn(Cc4ncccc4F)c4ncc(F)cc34)nc(I)c21 [Example 4, 2-{5-Fluoro-1-[(3-fluoropyridin-2-yl)methyl]-1H-pyrazolo[3,4-b]pyridin-3-yl}-4-iodo-5,5-dimethyl-5,7-dihydro-6H-pyrrolo[2,3-d]pyrimidin-6-one]
2230 nM	3.0 µM	CC1(C)C(=O)Nc2nc(-c3nn(Cc4ccncc4F)c4ncc(F)cc34)nnc21 [Example 15, 3-{5-Fluoro-1-[(3-fluoropyridin-4-yl)methyl]-1H-pyrazolo[3,4-b]pyridin-3-yl}-7,7-dimethyl-5,7-dihydro-6H-pyrrolo[2,3-e][1,2,4]triazin-6-one]
–	3.0 µM	CC1(C)C(=O)Nc2nc(-c3nn(Cc4c(F)cncc4F)c4ncc(F)cc34)nc(O)c21 [Example 9, 2-{1-[(3,5-Difluoropyridin-4-yl)methyl]-5-fluoro-1H-pyrazolo[3,4-b]pyridin-3-yl}-4-hydroxy-5,5-dimethyl-5,7-dihydro-6H-pyrrolo[2,3-d]pyrimidin-6-one]
627 nM	3 µM	CC1(C)C(=O)Nc2nc(-c3nn(Cc4ncccc4F)c4ncc(F)cc34)nc(O)c21 [Example 5, 2-{5-Fluoro-1-[(3-fluoropyridin-2-yl)methyl]-1H-pyrazolo[3,4-b]pyridin-3-yl}-4-hydroxy-5,5-dimethyl-5,7-dihydro-6H-pyrrolo[2,3-d]pyrimidin-6-one]
207 nM	1.0 µM	CC1(C)C(=O)Nc2nc(-c3nn(Cc4ccncc4F)c4ncc(F)cc34)ncc21 [Example 14, 2-{5-Fluoro-1-[(3-fluoropyridin-4-yl)methyl]-1H-pyrazolo[3,4-b]pyridin-3-yl}-5,5-dimethyl-5,7-dihydro-6H-pyrrolo[2,3-d]pyrimidin-6-one]
196 nM	0.1 µM	CC1(C)C(=O)Nc2nc(-c3nn(Cc4cncnc4)c4ncc(F)cc34)ncc21 [Example 18, 2-[5-Fluoro-1-(pyrimidin-5-ylmethyl)-1H-pyrazolo[3,4-b]pyridin-3-yl]-5,5-dimethyl-5,7-dihydro-6H-pyrrolo[2,3-d]pyrimidin-6-one]
259 nM	1.0 µM	CC1(C)C(=O)Nc2nc(-c3nn(Cc4c(F)cncc4F)c4ncc(F)cc34)ncc21 [Example 10, 2-[1-[(3,5-Difluoropyridin-4-yl)methyl]-5-fluoro-1H-pyrazolo[3,4-b]pyridin-3-yl]-5,5-dimethyl-5,7-dihydro-6H-pyrrolo[2,3-d]pyrimidin-6-one]
361 nM	0.1 µM	CC1(C)C(=O)Nc2nc(-c3nn(Cc4cncnc4)c4ncc(F)cc34)nnc21 [Example 19, 3-[5-Fluoro-1-(pyrimidin-5-ylmethyl)-1H-pyrazolo[3,4-b]pyridin-3-yl]-7,7-dimethyl-5,7-dihydro-6H-pyrrolo[2,3-e][1,2,4]triazin-6-one]
–	0.01 µM	CC1(C)C(=O)Nc2nc(-c3nn(Cc4sccc4F)c4ncc(F)cc34)nnc21 [Example 20, 3-{5-Fluoro-1-[(3-fluoro-2-thienyl)methyl]-1H-pyrazolo[3,4-b]pyridin-3-yl}-7,7-dimethyl-5,7-dihydro-6H-pyrrolo[2,3-e][1,2,4]triazin-6-one]
–	1.0 µM	CC1(C)C(=O)Nc2nc(-c3nn(Cc4ncc(F)cc4F)c4ncc(F)cc34)nnc21 [Example 16, 3-{1-[(3,5-Difluoropyridin-2-yl)methyl]-5-fluoro-1H-pyrazolo[3,4-b]pyridin-3-yl}-7,7-dimethyl-5,7-dihydro-6H-pyrrolo[2,3-e][1,2,4]triazin-6-one]
